In one assay the test system is TRPA1 mRNA. Kind of assay: Real-time RT-PCR of TRPA1 mRNA in hTRPA1/CHO cells. Type of assay: cell-based, human. As to conditions: pre-incubation with TLR ligand. How it is done: Total RNA was extracted from hTRPA1/CHO cells using TRI reagent (Sigma, St. Louise, MO, USA). 3 µg of RNA was reverse transcribed using iScript select cDNA synthesis kit (Biorad Hercules, CA, USA) according to the manufacturer's instructions to produce single-stranded cDNA. RT-PCR was performed with an real-time thermal cycler Eppendorf Mastercycler Ep (Eppendorf AG, Hamburg, Germany) using iTaq SYBR Green Supermix with ROX kit (Biorad Hercules, CA, USA) with human TRPA1 specific primers: 5′-[…]-3′(sense primer) and 5′-CTTTTATGTCTACTTG GGCACCTT-3′(antisense primer). RT-PCR reaction was carried out for 40 cycles at 94°C for 30 s, 60°C for 15 s and 60°C for 60 s. Data was interpreted using 2^(-ΔΔCT) Livak method of analysis.
(Quantitative PCR measures a nucleic acid by following its amplification.)

In assay [1] the target is T1, TRPA1 (Homo sapiens, UniProt O75762). In words: TLR ligand-enhanced 45Ca+2 uptake in hTRPA1/CHO cells. Type of assay: cell-based. The arrangement: expressed in transfected cells. How it is done:
(§1) Human lung fibroblast cells, CCD19-Lu (ATCC CCL-210) were obtained from American Type Culture Collection (ATCC; Rockville, MD, USA) and cultured in MEM supplemented with 10% FBS. Human pulmonary alveolar epithelial cell line A549 (ATCC CCL-185) was also obtained from ATCC and maintained in DMEM F-12 supplemented with 10% FBS. Both the cell types were cultured at 37°C in humidified air containing 5% CO2. Chinese hamster ovary (CHO) cells stably expressing human TRPA1 (hTRPA1/CHO), TRPV1 (hTRPV1/CHO), TRPV3 (hTRPV3/CHO), TRPV4 (hTRPV4/CHO and TRPM8 (hTRPM8/CHO were generated in-house and maintained in DMEM F-12 supplemented with 10% FBS and G418.
(§2) Fluorimetric and radiometric Ca^+2 influx assay was performed as described earlier. GRC 17536, GRC 17770, compound 7 or GRC 6211 was added to the cells 15 minutes prior to addition of agonist. Citric acid stock solution (1 M) was prepared in dH2O. Subsequent dilutions were made in Ca^+2, Mg^+2 free PBS (pH 7.3). No significant change in pH was observed upto 10 mM citric acid. At 30 mM concentration of citric acid, the pH of the solution dropped to 5.5. TLR ligands - LPS (10 µg/ml, TLR4), loxoribine (10 µM, TLR7) and ssRNA40 (1 µg/ml, TLR8) were dissolved in media and added to the cells for 16–18 hours. TRP selectivity of GRC 17536 and compound 7 was performed for TRPV1, TRPV3, TRPV4 and TRPM8 using Capsaicin (1 µM), 2-APB (1 mM), 4α-PDD (30 µM) and Icilin (250 nM) respectively, as agonist.

Assay [2] has as its target T1, TRPA1. Kind of assay: TLR ligand-enhanced 45Ca+2 uptake in A549 cells. The class given is cell-based. Details: A549 cells have been reported to express endogenous TRPA1; host or cells: A549. As to conditions: A549 cells; TLR ligand pre-treatment 16-18 hours. The procedure:
as §1, §2

The target of assay [3] is T1, TRPA1. In words: Citric acid-induced Ca+2 influx in CCD19-Lu cells. Type of assay: cell-based. The arrangement: A549 cells have been reported to express endogenous TRPA1; host or cells: A549. As to conditions: up to 10 µM antagonist. How it is done: as §1, §2
Assay [4] concerns the target T1, TRPA1. Kind of assay: Citric acid-induced Ca+2 influx in A549 cells. The class given is cell-based. Details: A549 cells have been reported to express endogenous TRPA1; host or cells: A549. As to conditions: up to 10 µM antagonist. How it is done: as §1, §2

From publication PMC4018403, “Transient Receptor Potential Ankyrin 1 Receptor Activation In Vitro and In Vivo by Pro-tussive Agents: GRC 17536 as a Promising Anti-Tussive Therapeutic” (PLoS ONE, 2014) come the findings set out here.

T1 sequence (O75762 whole entry): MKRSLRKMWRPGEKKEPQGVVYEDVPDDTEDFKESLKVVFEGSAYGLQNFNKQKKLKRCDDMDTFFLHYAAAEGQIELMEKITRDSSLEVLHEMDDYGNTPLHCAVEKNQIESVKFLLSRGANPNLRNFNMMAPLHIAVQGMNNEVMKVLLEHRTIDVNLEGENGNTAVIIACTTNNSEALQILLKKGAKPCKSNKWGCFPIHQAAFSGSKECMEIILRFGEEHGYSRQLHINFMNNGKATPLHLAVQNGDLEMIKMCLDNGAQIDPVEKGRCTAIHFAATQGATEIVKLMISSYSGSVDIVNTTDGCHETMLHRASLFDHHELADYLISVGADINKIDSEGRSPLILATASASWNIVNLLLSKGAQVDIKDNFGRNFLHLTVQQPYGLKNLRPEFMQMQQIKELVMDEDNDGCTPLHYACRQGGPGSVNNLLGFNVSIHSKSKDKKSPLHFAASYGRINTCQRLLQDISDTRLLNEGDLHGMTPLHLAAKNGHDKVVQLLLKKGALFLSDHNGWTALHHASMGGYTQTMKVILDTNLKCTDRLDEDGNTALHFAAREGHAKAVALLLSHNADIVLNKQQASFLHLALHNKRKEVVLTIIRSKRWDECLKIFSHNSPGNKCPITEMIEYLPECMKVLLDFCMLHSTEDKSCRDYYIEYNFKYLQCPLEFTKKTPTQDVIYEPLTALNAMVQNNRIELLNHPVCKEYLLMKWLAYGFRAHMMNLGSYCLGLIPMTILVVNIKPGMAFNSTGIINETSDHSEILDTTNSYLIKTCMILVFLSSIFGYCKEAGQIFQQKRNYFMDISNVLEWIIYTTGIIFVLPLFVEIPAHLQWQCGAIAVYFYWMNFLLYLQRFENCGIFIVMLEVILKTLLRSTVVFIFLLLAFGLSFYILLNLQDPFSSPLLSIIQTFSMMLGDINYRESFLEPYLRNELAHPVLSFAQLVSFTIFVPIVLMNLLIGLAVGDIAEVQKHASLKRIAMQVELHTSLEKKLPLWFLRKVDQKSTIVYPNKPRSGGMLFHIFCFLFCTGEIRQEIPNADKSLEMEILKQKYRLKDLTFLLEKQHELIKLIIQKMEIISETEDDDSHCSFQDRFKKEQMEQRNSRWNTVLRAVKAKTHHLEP

For `C=CCn1c(=O)n([C@@H]2O[C@H](CO)[C@@H](O)[C@H]2O)c2nc(N)[nH]c(=O)c21` [Loxoribine, reference compound], the “TRPA1 mRNA levels compared to control” value in the assay with TRPA1 mRNA is “enhance TRPA1 expression”. Besides, at TRPA1 [1] (hTRPA1/CHO, pre-treatment Loxoribine 10 µM or ssRNA40 1 µg/ml, 16-18 hours), the “Increase in 45Ca+2 uptake over AITC alone” value stood at 20%. Further, the “Increase in 45Ca+2 uptake by TLR ligand alone” value at TRPA1 [1] (ligand alone, no TRPA1 agonist, 'these cells', data not shown) is “did not show any increase”. Also, the “Enhancement of AITC mediated 45Ca+2 uptake” value on TRPA1 [2] is listed as 30%.
`O=C(Nc1cccc2cnccc12)N[C@@H]1CC2(CCC2)Oc2ccc(F)cc21` [GRC 6211]: the “Inhibition of citric acid induced increase in Ca+2” value at TRPA1 [3] and at TRPA1 [4] was “failed to inhibit” each time.
